Key:
human CCR2 [1] = biological target: T1, human CCR2 (Homo sapiens, UniProt P41597); experiment: CCR2 binding assay ([125I]-MCP-1 displacement, SPA); design: expressed in transfected cells; host or cells: HEK293 EBNA cells (membrane preparation); conditions: human CCR2-HEK293 EBNA membranes
Experimental: The binding of test compounds to the CCR2 receptor was evaluated using [^125I]-MCP-1.
Briefly, 25 μL assay buffer (25 mM HEPES, pH 7.4, 5 mM MgCl2, 1 mM CaCl2, 0.2% (w/v) protease free BSA, 100 μg/mL bacitracine and 0.1 M NaCl) was placed into total binding wells and 25 μL unlabelled ligand (0.4 μM MCP-1, for determination of non-specific binding) was placed into non-specific binding wells. [^125I]-MCP-1 (25 μL), human CCR2-HEK293 EBNA membrane preparation (25 μL) and SPA beads (25 μL) were added to all the wells. The wells were incubated for 4 h and counted for 1 min/well in a Perkin Elmer Topcount NXT.
The SPA beads (wheat germ agglutinin (WGA) PEI Type A PVT 0.25 mg/well) were prepared by reconstituting lyophilised bead to 100 mg/mL with de-ionised water and further diluting in assay buffer to give 10 mg/mL. The radioligand ([^125I]-MCP-1) was prepared by dilution in assay buffer to give 0.32 μCi/mL, ˜17600 dpm/25 μL (specific activity 2000 Ci/mMol). The final assay concentration was 0.04 nM. The human CCR2-HEK293 EBNA cells membranes were prepared as follows: cells were spun down at 1000×g for 3 min at room temperature, washed in PBS and spun down again. The cells were then homogenised with an Ultra Turrax at setting 6 in 5-10 mL ice cold buffer A (EDTA 10 mM, HEPES 10 mM, pH 7.4) for 10 sec. Following dilution with further ice cold buffer A and spinning at 20000×g for 20 min at 4° C., the mixture was re-homogenised in 5-10 mL ice cold buffer B (EDTA 0.1 mM, HEPES 10 mM, pH 7.4) and spun at 20000×g for 20 min at 4° C. The protein was assayed and re-suspended in buffer C (Buffer B+1 tablet/10 mL of Roche protease inhibitor cocktail) at 3 mg/mL. Before use, the membranes were thawed and diluted with assay buffer to give 80 μg/mL (2 μg/well).
Specific binding was determined as the difference between total binding in the absence of antagonist and binding in the presence of excess antagonist (non-specific binding). Data was expressed as a percentage of specific binding and analysed by a 4-parameter logistic equation using GraphPad Prism 4 software (GraphPad, San Diego, Calif., USA) to yield IC50 values. Ki values were calculated from the IC50 values using the correction for radioligand concentration.

[2] = test system: rat model of STZ induced diabetes; experiment: rat model of STZ induced diabetes (diabetic nephropathy), kidney histology; format: in vivo; conditions: male Wistar rats, STZ 50 mg/kg i.p., 8 mg/kg/day oral, kidney day 43, p<0.01 vs STZ-vehicle
Description: Diabetic nephropathy is a common manifestation of renal disease and is defined as the progressive development of renal insufficiency in the setting of hyperglycaemia. This sustained hyperglycaemia causes glomerular mesangial expansion through increased synthesis and decreased degradation of extracellular matrix protein, which progressively destroys the glomerular capillaries, eventually leading to proteinuria and renal failure. Animal models for diabetes can be employed for assessing the mechanisms of the disease, screening potential therapies for the treatment of this condition, and evaluation of therapeutic options. […] A single intraperitoneal injection of STZ in rats results in selective damage of the insulin producing beta cells in the pancreas causing insulin deficiency and subsequent hyperglycaemia after 48 hours. Over the time course of this procedure which can last from 3 weeks to many months, animals develop modest elevations in albuminuria and serum creatinine and some of the histological lesions associated with diabetic nephropathy. The aim of this study was to determine the efficacy of a test compound CCR2 antagonist (Example 33) in a rat model of STZ induced diabetes.
Male Wistar rats were given daily oral administration of the vehicle (30% w/v hydroxypropyl-beta-cyclodextrin (HPBC)) in saline to groups 1 and 3, or oral administration of Example 33 (8 mg/kg/day) to group 2, from 3 days prior to administration of streptozotocin. On day 0 streptozotocin was injected (50 mg/kg body wt, i.p. dissolved in 20 mM sodium citrate buffer) to rats in groups 1 and 2 (STZ groups). Group 3 rats (sham) were injected with an equivalent volume of 20 mM sodium citrate buffer. On day 43 all animals were culled, the left kidney was removed and cut in a sagittal section. These tissue samples were fixed by immersion in 10% (wt/vol) formaldehyde in phosphate-buffered saline (PBS) (0.01 mol/L, pH 7.4) at room temperature. […] The measured parameters were 1) monocyte and macrophage infiltration, 2) tubular damage and 3) glomerular damage. […]

human CCR2 [3] = biological target: T1, human CCR2; experiment: CCR2 functional calcium assay (FLIPR calcium flux, hMCP-1 challenge); format: cell-based; design: expressed in transfected cells; host or cells: HEK293 EBNA cells; conditions: HEK293 EBNA cells transfected with human CCR2, hMCP-1 challenge; read-out: Functional CCR2 fKi
Outline: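 FLIPR Fluo-4 calcium flux in HEK293 EBNA cells transfected with human CCR2, with non-transfected cells as control. Compounds (10-point 1:3 curves, typically 30 μM to 0.5 nM) were added in HBSS/20 mM HEPES/0.1% BSA, pH 7.4, followed by MCP-1 challenge. Peak minus basal signal was expressed as % of EC50 MCP-1 response.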

T1 sequence (P41597 whole entry): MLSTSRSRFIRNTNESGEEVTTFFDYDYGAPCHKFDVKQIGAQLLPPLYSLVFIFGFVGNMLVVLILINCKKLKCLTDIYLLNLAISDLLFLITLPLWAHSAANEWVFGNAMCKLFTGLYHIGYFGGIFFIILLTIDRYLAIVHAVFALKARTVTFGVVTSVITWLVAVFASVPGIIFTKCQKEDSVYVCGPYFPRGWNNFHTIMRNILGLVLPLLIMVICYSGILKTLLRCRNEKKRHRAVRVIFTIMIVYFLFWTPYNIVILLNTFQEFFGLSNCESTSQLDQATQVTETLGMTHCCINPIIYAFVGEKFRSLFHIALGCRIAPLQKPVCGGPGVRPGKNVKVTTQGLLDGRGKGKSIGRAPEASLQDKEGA

Row | Ki (human CCR2 [1]) | Ki (human CCR2 [3]) | SMILES | glomerular damage (semiquantitative score) [2] | monocyte and macrophage infiltration (semiquantitative score) [2] | tubular damage (semiquantitative score) [2]
1 | 10 to 100 nM | < 10 nM | Oc1c(Cc2cc(F)cc(C(F)(F)F)c2)c(C2CC2)nc2ccnn12 [Example 33, 5-Cyclopropyl-6-{[3-fluoro-5-(trifluoro-methyl)phenyl]methyl}pyrazolo[1,5-a]-pyrimidin-7-ol] | statistically significant effect reducing | statistically significant effect reducing | statistically significant effect reducing
2 | < 10 nM | < 10 nM | CC(C)c1nc2ccnn2c(O)c1Cc1ccc(F)c(Cl)c1 [Example 37, 6-[(3-Chloro-4-fluorophenyl)methyl]-5-(propan-2-yl)pyrazolo[1,5-a]pyrimidin-7-ol] |  |  | 
